pIC50: −log10 of the molar value. Blank lines part the entries; values can stand above or below the compound they belong to.
How the values were obtained:
IKZF2 = IKZF2 (Homo sapiens (Human), UniProt Q96SW2+Q9UKS7); assay: In vitro IKZF2 Western Blot Assay in Jurkat cells; format: cell-based; conditions: 24 hrs; for inhibition at 0.001 µM: read-out: IKZF2 degradation (%) @ μM 0.001; for inhibition at 0.01 µM: read-out: IKZF2 degradation (%) @ μM 0.01; for inhibition at 0.1 µM: read-out: IKZF2 degradation (%) @ μM 0.1; for inhibition at 1 µM: read-out: IKZF2 degradation (%) @ μM 1; for inhibition at 10 µM: read-out: IKZF2 degradation (%) @ μM 10
Method: In vitro IKZF2 Western Blot Assay Jurkat cells (ATCC, Cat #HB-8065) were cultured in RPMI1640+10% FBS+1% P/S. Cells were treated at desired compound concentrations (0.001, 0.01, 0.1, 1, and 10 μM) and DMSO as vehicle control for 24 hrs. After 24 hr of treatment cells were collected by centrifugation and lysed in RIPA lysis buffer on ice for 10 min. After assessing protein concentration by BCA assay (Pierce), equal amounts of protein for each sample were loaded into 4-12% Bis-Tris gels (Invitrogen), transferred to PVDF membranes and immunoblotted with antibodies against IKZF2 and Actin (Cell Signaling). Membranes were developed on an Odyssey detection system (LI-COR Biosciences) after incubation with IRDye800-labeled goat anti-rabbit IgG and IRDye680-labeled goat anti-mouse IgG (LI-COR) secondary antibodies. Band intensities were quantified using ImageStudio software. Data was further analyzed using XLfit. Percentage of IKZF2 protein degradation: A (>50%); B (30-50%); C(<30%) (Table 2).

CRBN/DDB1 = CRBN/DDB1 (Homo sapiens (Human), UniProt Q96SW2); assay: IC50 measurements for binding to CRBN/DDB1 (HTRF); conditions: His tagged CRBN+DDB, Cy5-labeled Thalidomide probe, one hour
Outline: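 HTRF competition binding with 2 nM His-tagged CRBN-DDB1 complex, 60 nM Cy5-thalidomide probe and 0.4 nM anti-His Tb cryptate in 50 mM HEPES pH 7.5, 1 mM TCEP, 0.01% Brij-35, 50 mM NaCl, 0.1% BSA. Read after 1 h at room temperature; IC50 from four-parameter dose-response fit.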

Sequence of IKZF2 (Q9UKS7 whole entry): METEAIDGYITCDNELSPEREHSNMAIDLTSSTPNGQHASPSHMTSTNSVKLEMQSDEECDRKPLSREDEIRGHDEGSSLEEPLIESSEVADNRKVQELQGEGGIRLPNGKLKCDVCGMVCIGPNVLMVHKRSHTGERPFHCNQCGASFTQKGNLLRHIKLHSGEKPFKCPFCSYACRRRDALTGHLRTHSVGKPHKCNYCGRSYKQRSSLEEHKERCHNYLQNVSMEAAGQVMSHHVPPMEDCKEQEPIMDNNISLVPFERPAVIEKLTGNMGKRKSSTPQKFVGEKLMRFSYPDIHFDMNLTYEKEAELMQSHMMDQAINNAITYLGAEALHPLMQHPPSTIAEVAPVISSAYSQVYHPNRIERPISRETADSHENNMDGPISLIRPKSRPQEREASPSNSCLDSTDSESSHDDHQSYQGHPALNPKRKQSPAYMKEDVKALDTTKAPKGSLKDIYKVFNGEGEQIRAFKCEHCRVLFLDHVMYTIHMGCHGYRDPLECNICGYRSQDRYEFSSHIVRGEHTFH
Sequence of IKZF2 (Q96SW2 whole entry): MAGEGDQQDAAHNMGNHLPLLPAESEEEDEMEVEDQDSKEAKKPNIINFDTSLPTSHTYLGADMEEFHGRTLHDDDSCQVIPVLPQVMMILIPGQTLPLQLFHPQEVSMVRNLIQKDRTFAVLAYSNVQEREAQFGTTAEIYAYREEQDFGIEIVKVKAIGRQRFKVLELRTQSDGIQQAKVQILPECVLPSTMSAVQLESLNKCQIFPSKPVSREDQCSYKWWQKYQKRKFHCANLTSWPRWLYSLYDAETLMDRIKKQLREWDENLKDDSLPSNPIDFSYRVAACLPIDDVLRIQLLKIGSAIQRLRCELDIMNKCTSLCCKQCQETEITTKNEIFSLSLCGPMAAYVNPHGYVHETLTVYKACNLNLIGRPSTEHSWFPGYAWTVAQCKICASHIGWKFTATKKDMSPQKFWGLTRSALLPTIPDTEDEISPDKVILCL
Sequence of IKZF2 (Q16531 2-1140 partner): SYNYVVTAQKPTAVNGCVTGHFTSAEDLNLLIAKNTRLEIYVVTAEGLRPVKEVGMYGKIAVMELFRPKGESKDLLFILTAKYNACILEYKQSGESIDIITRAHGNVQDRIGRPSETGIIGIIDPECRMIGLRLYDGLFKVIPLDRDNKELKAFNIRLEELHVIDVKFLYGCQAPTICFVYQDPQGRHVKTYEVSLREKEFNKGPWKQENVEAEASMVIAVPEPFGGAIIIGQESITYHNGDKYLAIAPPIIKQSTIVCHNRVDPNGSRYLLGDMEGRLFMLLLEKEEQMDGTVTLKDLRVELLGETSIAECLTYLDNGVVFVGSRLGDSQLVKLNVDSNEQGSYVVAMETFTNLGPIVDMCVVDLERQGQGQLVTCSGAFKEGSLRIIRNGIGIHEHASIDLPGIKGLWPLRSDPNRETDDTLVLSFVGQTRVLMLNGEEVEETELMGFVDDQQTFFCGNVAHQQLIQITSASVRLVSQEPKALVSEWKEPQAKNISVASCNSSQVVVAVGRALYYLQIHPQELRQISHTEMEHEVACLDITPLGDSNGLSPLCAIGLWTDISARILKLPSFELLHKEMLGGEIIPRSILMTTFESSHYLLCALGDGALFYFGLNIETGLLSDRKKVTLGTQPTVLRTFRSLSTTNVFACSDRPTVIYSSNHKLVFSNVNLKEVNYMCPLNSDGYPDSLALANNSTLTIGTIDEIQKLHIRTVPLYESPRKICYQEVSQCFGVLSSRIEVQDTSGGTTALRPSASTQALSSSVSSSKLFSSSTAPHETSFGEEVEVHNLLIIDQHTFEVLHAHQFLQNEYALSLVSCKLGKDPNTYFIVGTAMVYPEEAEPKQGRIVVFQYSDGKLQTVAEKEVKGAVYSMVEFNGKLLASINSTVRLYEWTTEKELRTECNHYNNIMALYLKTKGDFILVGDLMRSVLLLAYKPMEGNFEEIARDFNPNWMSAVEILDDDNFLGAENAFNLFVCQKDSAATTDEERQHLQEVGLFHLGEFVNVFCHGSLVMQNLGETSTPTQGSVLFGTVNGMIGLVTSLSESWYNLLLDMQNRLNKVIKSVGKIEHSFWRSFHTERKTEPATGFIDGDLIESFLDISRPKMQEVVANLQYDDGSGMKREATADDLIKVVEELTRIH
Sequence of CRBN/DDB1 (Q96SW2 whole entry, species assumed): as the sequence (Q96SW2 whole entry) above
Sequence of CRBN/DDB1 (Q16531 whole entry partner, species assumed): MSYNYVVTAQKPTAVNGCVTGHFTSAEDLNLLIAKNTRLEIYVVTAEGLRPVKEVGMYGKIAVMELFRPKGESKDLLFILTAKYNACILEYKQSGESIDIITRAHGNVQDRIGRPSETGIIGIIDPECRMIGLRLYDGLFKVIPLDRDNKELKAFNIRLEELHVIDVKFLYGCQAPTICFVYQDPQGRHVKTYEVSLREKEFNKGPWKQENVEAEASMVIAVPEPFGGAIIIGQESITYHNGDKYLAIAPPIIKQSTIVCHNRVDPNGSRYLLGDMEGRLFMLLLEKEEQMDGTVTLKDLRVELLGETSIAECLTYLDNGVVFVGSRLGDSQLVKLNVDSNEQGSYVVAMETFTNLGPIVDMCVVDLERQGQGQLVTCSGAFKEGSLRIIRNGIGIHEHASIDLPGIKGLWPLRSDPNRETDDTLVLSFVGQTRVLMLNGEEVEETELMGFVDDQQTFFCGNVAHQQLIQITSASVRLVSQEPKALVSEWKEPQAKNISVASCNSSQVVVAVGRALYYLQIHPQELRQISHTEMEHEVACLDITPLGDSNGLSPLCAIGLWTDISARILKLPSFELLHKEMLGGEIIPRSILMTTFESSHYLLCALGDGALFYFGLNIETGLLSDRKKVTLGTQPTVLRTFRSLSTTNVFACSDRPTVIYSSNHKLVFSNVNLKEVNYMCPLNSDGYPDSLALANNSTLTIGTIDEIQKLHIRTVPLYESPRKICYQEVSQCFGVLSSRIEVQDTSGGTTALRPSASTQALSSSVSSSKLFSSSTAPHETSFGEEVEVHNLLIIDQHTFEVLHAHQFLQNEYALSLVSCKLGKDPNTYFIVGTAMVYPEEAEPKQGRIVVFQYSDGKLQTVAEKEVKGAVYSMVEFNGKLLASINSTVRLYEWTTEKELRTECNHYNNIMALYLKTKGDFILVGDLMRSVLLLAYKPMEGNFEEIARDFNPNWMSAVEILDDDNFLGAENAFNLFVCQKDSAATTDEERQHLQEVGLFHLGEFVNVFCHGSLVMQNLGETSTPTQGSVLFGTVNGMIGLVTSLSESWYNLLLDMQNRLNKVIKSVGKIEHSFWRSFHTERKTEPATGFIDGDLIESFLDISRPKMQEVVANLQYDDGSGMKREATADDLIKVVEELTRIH

SMILES: O=C1CCC(N2Cc3cc(-c4cc(CN5CCC(c6ccccc6)CC5)cn5ccnc45)ccc3C2=O)C(=O)N1 (stereo not drawn) [Example 47, 3-(1-oxo-5-(6-((4-phenylpiperidin-1-yl)methyl)imidazo[1,2-a]pyridin-8-yl)isoindolin-2-yl) piperidine-2,6-dione]
inhibition at 0.001 µM (IKZF2): 30 to 50%
inhibition at 0.01 µM (IKZF2): 30 to 50%
inhibition at 0.1 µM (IKZF2): < 30%
inhibition at 1 µM (IKZF2): < 30%
inhibition at 10 µM (IKZF2): < 30%
pIC50 (CRBN/DDB1): > 7.00

SMILES: CC1(C)CCN(Cc2cc(-c3ccc4c(c3)CN(C3CCC(=O)NC3=O)C4=O)c3nccn3c2)CC1 (stereo not drawn) [Example 36, 3-(5-(6-((4,4-dimethylpiperidin-1-yl)methyl)imidazo[1,2-a]pyridin-8-yl)-1-oxoisoindolin-2-yl) piperidine-2,6-dione]
inhibition at 0.001 µM (IKZF2): 30 to 50%
inhibition at 0.01 µM (IKZF2): 30 to 50%
inhibition at 0.1 µM (IKZF2): < 30%
inhibition at 1 µM (IKZF2): < 30%
inhibition at 10 µM (IKZF2): < 30%
pIC50 (CRBN/DDB1): 6.30 to 7.00

SMILES: O=C1CCC(N2Cc3cc(-c4cc(CN5CC(c6ccccc6)C5)cn5ccnc45)ccc3C2=O)C(=O)N1 (stereo not drawn) [Example 48, 3-(1-oxo-5-(6-((3-phenylazetidin-1-yl)methyl)imidazo[1,2-a]pyridin-8-yl)isoindolin-2-yl) piperidine-2,6-dione]
inhibition at 0.001 µM (IKZF2): < 30%
inhibition at 0.01 µM (IKZF2): < 30%
inhibition at 0.1 µM (IKZF2): < 30%
inhibition at 1 µM (IKZF2): < 30%
inhibition at 10 µM (IKZF2): < 30%
pIC50 (CRBN/DDB1): > 7.00

SMILES: Cc1ccccc1CCNCc1cc(-c2ccc3c(c2)CN(C2CCC(=O)NC2=O)C3=O)c2nccn2c1 (stereo not drawn) [Example 42, 3-(5-(6-(((2-methylphenethyl)amino)methyl)imidazo[1,2-a]pyridin-8-yl)-1-oxoisoindolin-2-yl) piperidine-2,6-dione]
inhibition at 0.001 µM (IKZF2): < 30%
inhibition at 0.01 µM (IKZF2): < 30%
inhibition at 0.1 µM (IKZF2): < 30%
inhibition at 1 µM (IKZF2): < 30%
inhibition at 10 µM (IKZF2): 30 to 50%
pIC50 (CRBN/DDB1): > 7.00

SMILES: O=C1CCC(N2Cc3cc(-c4cc(CN5CCC(C(F)(F)F)CC5)cn5ccnc45)ccc3C2=O)C(=O)N1 (stereo not drawn) [Example 37, 3-(1-oxo-5-(6-((4-(trifluoromethyl)piperidin-1-yl)methyl)imidazo[1,2-a]pyridin-8-yl)isoindolin-2-yl) piperidine-2,6-dione]
inhibition at 0.001 µM (IKZF2): < 30%
inhibition at 0.01 µM (IKZF2): < 30%
inhibition at 0.1 µM (IKZF2): < 30%
inhibition at 1 µM (IKZF2): < 30%
inhibition at 10 µM (IKZF2): < 30%
pIC50 (CRBN/DDB1): > 7.00

SMILES: O=C1CCC(N2Cc3cc(-c4cc(CNCCc5c(F)cccc5F)cn5ccnc45)ccc3C2=O)C(=O)N1 (stereo not drawn) [Example 39, 3-(5-(6-(((2,6-difluorophenethyl)amino)methyl)imidazo[1,2-a]pyridin-8-yl)-1-oxoisoindolin-2-yl) piperidine-2,6-dione]
inhibition at 0.001 µM (IKZF2): < 30%
inhibition at 0.01 µM (IKZF2): < 30%
inhibition at 0.1 µM (IKZF2): < 30%
inhibition at 1 µM (IKZF2): < 30%
inhibition at 10 µM (IKZF2): < 30%
pIC50 (CRBN/DDB1): > 7.00

SMILES: O=C1CCC(N2Cc3cc(-c4cc(CNCCc5ccccc5Cl)cn5ccnc45)ccc3C2=O)C(=O)N1 (stereo not drawn) [Example 44, 3-(5-(6-(((2-chlorophenethyl)amino)methyl)imidazo[1,2-a]pyridin-8-yl)-1-oxoisoindolin-2-yl) piperidine-2,6-dione]
inhibition at 0.001 µM (IKZF2): < 30%
inhibition at 0.01 µM (IKZF2): < 30%
inhibition at 0.1 µM (IKZF2): 30 to 50%
inhibition at 1 µM (IKZF2): < 30%
inhibition at 10 µM (IKZF2): 30 to 50%
pIC50 (CRBN/DDB1): 6.30 to 7.00

inhibition at 0.001 µM (IKZF2): < 30%
inhibition at 0.01 µM (IKZF2): > 50%
inhibition at 0.1 µM (IKZF2): > 50%
inhibition at 1 µM (IKZF2): > 50%
inhibition at 10 µM (IKZF2): > 50%
pIC50 (CRBN/DDB1): 6.30 to 7.00
SMILES: O=C1CCC(N2Cc3cc(-c4cc(CN5CCCCC5)cn5ccnc45)ccc3C2=O)C(=O)N1 (stereo not drawn) [Example 33, 3-(1-oxo-5-(6-(piperidin-1-ylmethyl)imidazo[1,2-a]pyridin-8-yl)isoindolin-2-yl) piperidine-2,6-dione]

SMILES: O=C1CCC(N2Cc3cc(-c4cc(CN5CCCC5c5ccccc5)cn5ccnc45)ccc3C2=O)C(=O)N1 (stereo not drawn) [Example 49, 3-(1-oxo-5-(6-((2-phenylpyrrolidin-1-yl)methyl)imidazo[1,2-a]pyridin-8-yl)isoindolin-2-yl) piperidine-2,6-dione]
inhibition at 0.001 µM (IKZF2): < 30%
inhibition at 0.01 µM (IKZF2): < 30%
inhibition at 0.1 µM (IKZF2): < 30%
inhibition at 1 µM (IKZF2): < 30%
inhibition at 10 µM (IKZF2): < 30%
pIC50 (CRBN/DDB1): 6.30 to 7.00

SMILES: O=C1CCC(N2Cc3cc(-c4cc(CN5CCC5)cn5ccnc45)ccc3C2=O)C(=O)N1 (stereo not drawn) [Example 34, 3-(5-(6-(azetidin-1-ylmethyl)imidazo[1,2-a]pyridin-8-yl)-1-oxoisoindolin-2-yl) piperidine-2,6-dione]
inhibition at 0.001 µM (IKZF2): 30 to 50%
inhibition at 0.01 µM (IKZF2): 30 to 50%
inhibition at 0.1 µM (IKZF2): > 50%
inhibition at 1 µM (IKZF2): > 50%
inhibition at 10 µM (IKZF2): > 50%
pIC50 (CRBN/DDB1): > 7.00

SMILES: O=C1CCC(N2Cc3cc(-c4cc(CNCCc5ccccc5Cl)cc5cncn45)ccc3C2=O)C(=O)N1 (stereo not drawn) [Example 21, 3-(5-(7-(((2-chlorophenethyl)amino)methyl)imidazo[1,5-a]pyridin-5-yl)-1-oxoisoindolin-2-yl) piperidine-2,6-dione]
inhibition at 0.001 µM (IKZF2): 30 to 50%
inhibition at 0.01 µM (IKZF2): > 50%
inhibition at 0.1 µM (IKZF2): > 50%
inhibition at 1 µM (IKZF2): > 50%
inhibition at 10 µM (IKZF2): > 50%
pIC50 (CRBN/DDB1): 6.30 to 7.00

SMILES: CC(NCc1cc(-c2ccc3c(c2)CN(C2CCC(=O)NC2=O)C3=O)c2nccn2c1)c1ccccc1 (stereo not drawn) [Example 45, 3-(1-oxo-5-(6-(((1-phenylethyl)amino)methyl)imidazo[1,2-a]pyridin-8-yl)isoindolin-2-yl) piperidine-2,6-dione]
inhibition at 0.001 µM (IKZF2): 30 to 50%
inhibition at 0.01 µM (IKZF2): < 30%
inhibition at 0.1 µM (IKZF2): < 30%
inhibition at 1 µM (IKZF2): > 50%
inhibition at 10 µM (IKZF2): < 30%
pIC50 (CRBN/DDB1): 6.30 to 7.00

SMILES: O=C1CCC(N2Cc3cc(-c4cc(CNCCc5ccc(Cl)cc5Cl)cn5ccnc45)ccc3C2=O)C(=O)N1 (stereo not drawn) [Example 40, 3-(5-(6-(((2,4-dichlorophenethyl)amino)methyl)imidazo[1,2-a]pyridin-8-yl)-1-oxoisoindolin-2-yl) piperidine-2,6-dione]
inhibition at 0.001 µM (IKZF2): < 30%
inhibition at 0.01 µM (IKZF2): < 30%
inhibition at 0.1 µM (IKZF2): < 30%
inhibition at 1 µM (IKZF2): < 30%
inhibition at 10 µM (IKZF2): 30 to 50%
pIC50 (CRBN/DDB1): 6.30 to 7.00

SMILES: O=C1CCC(N2Cc3cc(-c4cc(CNCc5ccccc5Cl)cn5ccnc45)ccc3C2=O)C(=O)N1 (stereo not drawn) [Example 38, 3-(5-(6-(((2-chlorobenzyl)amino)methyl)imidazo[1,2-a]pyridin-8-yl)-1-oxoisoindolin-2-yl) piperidine-2,6-dione]
inhibition at 0.001 µM (IKZF2): < 30%
inhibition at 0.01 µM (IKZF2): < 30%
inhibition at 0.1 µM (IKZF2): < 30%
inhibition at 1 µM (IKZF2): < 30%
inhibition at 10 µM (IKZF2): < 30%
pIC50 (CRBN/DDB1): 6.30 to 7.00

SMILES: O=C1CCC(N2Cc3cc(-c4cc(CN5CCCC5c5ccccc5)cc5cncn45)ccc3C2=O)C(=O)N1 (stereo not drawn) [Example 26, 3-(1-oxo-5-(7-((2-phenylpyrrolidin-1-yl)methyl)imidazo[1,5-a]pyridin-5-yl)isoindolin-2-yl) piperidine-2,6-dione]
inhibition at 0.001 µM (IKZF2): < 30%
inhibition at 0.01 µM (IKZF2): < 30%
inhibition at 0.1 µM (IKZF2): 30 to 50%
inhibition at 1 µM (IKZF2): 30 to 50%
inhibition at 10 µM (IKZF2): 30 to 50%
pIC50 (CRBN/DDB1): 6.30 to 7.00
